Laboratory results as given in paper PMC5514153, “Targeting PTPRZ inhibits stem cell-like properties and tumorigenicity in glioblastoma cells” (Scientific Reports, 2017).

Molecular target: T1, hPTPRG (Homo sapiens, UniProt P23470)
T1 construct: The ICRs of PTPRG, PTPRS, and PTPRB and the catalytic domains of PTPN1 and PTPN6; GST (N); made in house; host or cells: Escherichia coli BL21
Test: In vitro PTPase assay (DiFMUP), PTPRG
Assay type: biochemical
Settings: 60-min preincubation
Description: Figure 4 NAZ2329, an allosteric inhibitor of R5 RPTP subfamily members. (A) Structure of NAZ2329. (B) Effect of preincubation of NAZ2329 on its inhibitory activity against PTPRZ. Recombinant human PTPRZ1 enzyme (the whole intracellular region) was premixed with NAZ2329 for the indicated times and followed by addition of a fluorogenic DiFMUP (non-specific PTP substrate, 6,8-difluoro-4-methylumbiliferyl phosphate) to measure PTP inhibitory activity. (C) Time dependence. The PTPRZ1 enzyme was added to the inhibitor–substrate mixture, and the inhibitory activity was determined at each time point relative to the vehicle control. (D) Reversibility of inhibition. […] The mixture was then 20-fold diluted, and recovered PTP activity was expressed as the relative activity compared with the vehicle-treated enzyme. […] PTPRZ1 enzymes were preincubated with NAZ2329 for 60 min, and the PTP activity was measured using DiFMUP. […]
Recombinant proteins corresponding to the entire intracellular regions (ICRs) of PTPRZ1, PTPRA, and PTPRM were expressed using a baculovirus-silkworm expression system, and purified as described. The ICRs of PTPRG, PTPRS, and PTPRB and the catalytic domains of PTPN1 and PTPN6 were expressed as glutathione-S-transferase (GST) fusion proteins from each pGEX plasmid in Escherichia coli strain BL21 (ref. [6]). […]

T1 sequence (P23470 763-1445 limits assumed): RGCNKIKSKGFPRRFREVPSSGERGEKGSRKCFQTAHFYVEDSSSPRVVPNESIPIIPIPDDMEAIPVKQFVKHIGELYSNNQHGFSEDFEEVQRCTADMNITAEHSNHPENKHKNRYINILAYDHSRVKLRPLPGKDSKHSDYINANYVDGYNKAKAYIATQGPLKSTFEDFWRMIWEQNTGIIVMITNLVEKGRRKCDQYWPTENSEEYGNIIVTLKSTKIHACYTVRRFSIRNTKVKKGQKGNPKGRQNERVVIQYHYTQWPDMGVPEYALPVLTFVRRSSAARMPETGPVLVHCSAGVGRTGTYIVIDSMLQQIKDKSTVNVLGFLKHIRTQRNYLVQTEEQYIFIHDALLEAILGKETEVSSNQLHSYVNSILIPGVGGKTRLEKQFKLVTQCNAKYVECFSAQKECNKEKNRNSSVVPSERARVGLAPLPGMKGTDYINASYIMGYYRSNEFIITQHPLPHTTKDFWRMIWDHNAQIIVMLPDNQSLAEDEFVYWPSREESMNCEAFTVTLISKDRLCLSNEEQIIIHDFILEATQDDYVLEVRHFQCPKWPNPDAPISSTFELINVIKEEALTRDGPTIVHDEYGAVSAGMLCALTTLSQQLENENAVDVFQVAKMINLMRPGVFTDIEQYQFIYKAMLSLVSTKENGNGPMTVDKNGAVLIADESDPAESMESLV

## CCOc1ccc(C(F)(F)F)cc1CSc1ccsc1C(=O)NS(=O)(=O)c1ccccc1 [NAZ2329]
  IC50: 4.8 µM
